Results taken from publication PMC11571207, “Stereorandomized Oncocins with Preserved Ribosome Binding and Antibacterial Activity” (Journal of Medicinal Chemistry, 2024).
In brackets after ≈: the same amount, converted by molar mass. Non-standard residues stand in square brackets, D forms with d. Residues, ends and D or L forms follow the SMILES beside them. No end group written: not given here.

How the values were obtained:
S. aureus COL (MRSA) = test: microbe, parasite or virus in culture; settings: for MIC S. aureus, 12.5% MHB / MIC S. aureus, Full MHB: S. aureus COL (MRSA), 16–20 h at 37 °C; for MIC S. aureus, 12.5% MHB: 12.5% Müller–Hinton medium; for MIC S. aureus, Full MHB: full Müller–Hinton medium; for MIC S. aureus COL (MRSA): supplement CSV
Summary of the method: (§1)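 Read-out was visible growth after MTT addition, the MIC being the lowest inhibitory peptide concentration. Bacteria grown to log phase in LB were exposed in MH medium to peptide from 64 μg/mL in twofold dilutions for 15-18h at 37°C.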

K. pneumoniae NCTC 418 = test: microbe, parasite or virus in culture; settings: for MIC K. pneumoniae, 12.5% MHB / MIC K. pneumoniae, Full MHB: K. pneumoniae NCTC 418, 16–20 h at 37 °C; for MIC K. pneumoniae, 12.5% MHB: 12.5% Müller–Hinton medium; for MIC K. pneumoniae, Full MHB: full Müller–Hinton medium; for MIC K. pneumoniae NCTC418: supplement CSV
Summary of the method: as §1

P. aeruginosa PAO1 = test: microbe, parasite or virus in culture; settings: for MIC P. aeruginosa, 12.5% MHB / MIC P. aeruginosa, Full MHB: P. aeruginosa PAO1, 16–20 h at 37 °C; for MIC P. aeruginosa, 12.5% MHB: 12.5% Müller–Hinton medium; for MIC P. aeruginosa, Full MHB: full Müller–Hinton medium; for MIC P. aeruginosa PAO1: supplement CSV
Summary of the method: as §1

A. baumannii ATCC19606 = test: microbe, parasite or virus in culture; settings: for MIC A. baumannii, 12.5% MHB / MIC A. baumannii, Full MHB: A. baumannii ATCC19606, 16–20 h at 37 °C; for MIC A. baumannii, 12.5% MHB: 12.5% Müller–Hinton medium; for MIC A. baumannii, Full MHB: full Müller–Hinton medium; for MIC A. baumannii ATCC19606: supplement CSV
Summary of the method: as §1

E. coli W3110 = test: microbe, parasite or virus in culture; settings: for MIC E. coli, 12.5% MHB / MIC E. coli, Full MHB: E. coli W3110, 16–20 h at 37 °C, broth microdilution; for MIC E. coli, 12.5% MHB: 12.5% Müller–Hinton medium; for MIC E. coli, Full MHB: full Müller–Hinton medium; for MIC E. coli W3110: supplement CSV
Summary of the method: as §1

human red blood cells = test: Hemolysis assay, minimum hemolytic concentration; settings: for Haemolysis on hRBC, MHC: 2.5% human red blood cells (final) in 10 mM phosphate, 150 mM NaCl, pH 7.4, 25 °C, 4 h, visual inspection; for MHC human red blood cells: supplement CSV

| Molecule | MIC S. aureus, 12.5% MHB (S. aureus COL (MRSA)) | MIC S. aureus, Full MHB (S. aureus COL (MRSA)) | MIC S. aureus COL (MRSA) (S. aureus COL (MRSA); 12.5% MH pH 7.4) [µg/mL] | MIC S. aureus COL (MRSA) (S. aureus COL (MRSA); full MH pH 7.4) [µg/mL] | MIC K. pneumoniae, 12.5% MHB (K. pneumoniae NCTC 418) [µg/mL] | MIC K. pneumoniae, Full MHB (K. pneumoniae NCTC 418) [µg/mL] | MIC K. pneumoniae NCTC418 (K. pneumoniae NCTC 418; 12.5% MH pH 7.4) [µg/mL] | MIC K. pneumoniae NCTC418 (K. pneumoniae NCTC 418; full MH pH 7.4) [µg/mL] | MIC P. aeruginosa, 12.5% MHB (P. aeruginosa PAO1) [µg/mL] | MIC P. aeruginosa, Full MHB (P. aeruginosa PAO1) [µg/mL] | MIC P. aeruginosa PAO1 (P. aeruginosa PAO1; 12.5% MH pH 7.4) [µg/mL] | MIC P. aeruginosa PAO1 (P. aeruginosa PAO1; full MH pH 7.4) [µg/mL] | MIC A. baumannii, 12.5% MHB (A. baumannii ATCC19606) [µg/mL] | MIC A. baumannii, Full MHB (A. baumannii ATCC19606) [µg/mL] | MIC A. baumannii ATCC19606 (A. baumannii ATCC19606; 12.5% MH pH 7.4) [µg/mL] | MIC A. baumannii ATCC19606 (A. baumannii ATCC19606; full MH pH 7.4) [µg/mL] | MIC E. coli, 12.5% MHB (E. coli W3110) [µg/mL] | MIC E. coli, Full MHB (E. coli W3110) [µg/mL] | MIC E. coli W3110 (E. coli W3110; 12.5% MH pH 7.4) [µg/mL] | MIC E. coli W3110 (E. coli W3110; full MH pH 7.4) [µg/mL] | also measured |
| --- | --- | --- | --- | --- | --- | --- | --- | --- | --- | --- | --- | --- | --- | --- | --- | --- | --- | --- | --- | --- | --- |
| CC[C@H](C)[C@H](NC(=O)[C@H](CCCNC(=N)N)NC(=O)[C@H](CCCNC(=N)N)NC(=O)[C@@H]1CCCN1C(=O)[C@@H]1CCCN1C(=O)[C@H](CCCNC(=N)N)NC(=O)[C@@H]1CCCN1C(=O)[C@H](CCCNC(=N)N)NC(=O)[C@@H]1CCCN1C(=O)[C@H](CC(C)C)NC(=O)[C@H](Cc1ccc(O)cc1)NC(=O)[C@H]1CCCN1C(=O)[C@H]1CCCN1C(=O)[C@H](CCCCN)NC(=O)[C@H](CC(=O)O)NC(=O)[C@@H](N)C(C)C)C(=O)N[C@@H](Cc1ccc(O)cc1)C(=O)N[C@@H](CC(N)=O)C(=O)N[C@@H](CCCNC(=N)N)C(N)=O [DP45-Onc] (H-VDK[dP][dP]YLPRPRPPRRIYNR-NH2) | >64 / >64 μg/mL | >64 / >64 μg/mL | >64 | >64 | > 16 | > 64 | >16 | >64 | > 16 | > 64 | >16 | >64 | 16 (≈ 6.69 µM) | > 64 | 16 (≈ 6.69 µM) | >64 | 8 (≈ 3.35 µM) | 64 (≈ 26.8 µM) | 8 (≈ 3.35 µM) | 64 (≈ 26.8 µM) | Haemolysis on hRBC, MHC (human red blood cells): >1000 µg/mL; MHC human red blood cells (human red blood cells): >1000 µg/mL |
| VDKPPYLPRPRPPRRIYNR [sr3Nterm-Onc] (VDKPPYLPRPRPPRRIYNR-NH2; also: residues 1-3 stereorandomized (1:1 L/D mixture)) | >64 / 64 μg/mL | >64 / 64 μg/mL | 64 | >64 | 2 | 16 | 2 | 16 | 16 | > 64 | 16 | >64 | 8 | 64 | 8 | 64 | 2 | 16 | 2 | 16 | Haemolysis on hRBC, MHC (human red blood cells): >1000 µg/mL; MHC human red blood cells (human red blood cells): >1000 µg/mL |
| CC[C@H](C)[C@H](NC(=O)[C@H](CCCNC(=N)N)NC(=O)[C@H](CCCNC(=N)N)NC(=O)[C@@H]1CCCN1C(=O)[C@H]1CCCN1C(=O)[C@H](CCCNC(=N)N)NC(=O)[C@@H]1CCCN1C(=O)[C@H](CCCNC(=N)N)NC(=O)[C@@H]1CCCN1C(=O)[C@H](CC(C)C)NC(=O)[C@H](Cc1ccc(O)cc1)NC(=O)[C@@H]1CCCN1C(=O)[C@@H]1CCCN1C(=O)[C@H](CCCCN)NC(=O)[C@H](CC(=O)O)NC(=O)[C@@H](N)C(C)C)C(=O)N[C@@H](Cc1ccc(O)cc1)C(=O)N[C@@H](CC(N)=O)C(=O)N[C@@H](CCCNC(=N)N)C(N)=O [DP12-Onc] (H-VDKPPYLPRPR[dP]PRRIYNR-NH2) | >64 / 64 μg/mL | >64 / 64 μg/mL | 64 (≈ 26.8 µM) | >64 | 4 (≈ 1.67 µM) | 16 (≈ 6.69 µM) | 4 (≈ 1.67 µM) | 16 (≈ 6.69 µM) | 16 (≈ 6.69 µM) | > 64 | 16 (≈ 6.69 µM) | >64 | 8 (≈ 3.35 µM) | 16 (≈ 6.69 µM) | 8 (≈ 3.35 µM) | 16 (≈ 6.69 µM) | 2 (≈ 0.837 µM) | 8 (≈ 3.35 µM) | 2 (≈ 0.837 µM) | 8 (≈ 3.35 µM) | Haemolysis on hRBC, MHC (human red blood cells): >1000 µg/mL; MHC human red blood cells (human red blood cells): >1000 µg/mL |
